System: not given
Test: not given
Settings: not given

SMILES	melting point
O=C(O)CCC(=O)N1CCN(C2(c3ccc(Oc4ccccc4)cc3)C(=O)NC(=O)NC2=O)CC1 [Example 3, 4-Oxo-4-4-[2,4,6-trioxo-5-(4-phenoxy-phenyl)-hexahydro-pyrimidin-5-yl]-piperazin-1-yl-butyric acid]	270 to 275 °C

Target: T1, MMP-8, catalytic domain (Homo sapiens, UniProt P22894)
T1 construct: Enzyme: 8 nM catalytic domain (Met80-Gly242) of human neutrophil collagenase (MMP-8); made in house
Test: Inhibition of MMP-8 catalytic domain, fluorogenic DNP-heptapeptide substrate cleavage
Format: biochemical
Settings: not given
Protocol: The results are evaluated by plotting the reciprocal reaction rate against the concentration of the inhibitor.
The synthetic collagenase substrate is a heptapeptide which is coupled, at the C terminus, with DNP (dinitrophenol). Said DNP residue quenches by steric hindrance the fluorescence of the adjacent tryptophane of the heptapeptide. After cleavage of a tripeptide which includes the DNP group, the tryptophane fluorescence increases. The proteolytic cleavage of the substrate therefore can be measured by the fluorescence value.
The assay was performed at 25° C. in a freshly prepared 50 mM Tris buffer (pH 8.0) treated with dithiozone to remove traces of heavy metals. 4 mM CaCl2 was added and the buffer saturated with argon. Stock solutions of adamalysin II were prepared by centrifugation of the protein from an ammonium sulfate suspension and subsequent dissolution in the assay buffer. Stock solutions of collagenase were diluted with the assay buffer. Enzyme concentrations were determined by uv measurements (ε280=2.8 10^4 M^−1 cm^−1, ε288: 2.2 10^4 M^−1·cm^−1) and the stock solutions were stored in the cold. […] Substrate fluorescence was measured at an excitation and emission wavelength of λ=320 and 420 nm, respectively, on a spectrofluorimeter (Perkin Elmer, Model 650-40) equipped with a thermostated cell holder. Substrate hydrolysis was monitored for 10 min. immediately after adding the enzyme. All reactions were performed at least in triplicate. The Ki values-of the inhibitors were calculated from the intersection point of the straight lines obtained by the plots of vo/vi vs. [concentration of inhibitor], whereas IC50 values were calculated from plots of vi/vo [concentration of inhibitor] by non-linear regression with simple robust weighting.
50 mM Tris/HCI pH 7.6 (Tris=Tris-(hydroxymethyl)-aminomethane)
100 mM NaCl/10 mM CaCl2/5% MeOH (if necessary)
Enzyme: 8 nM catalytic domain (Met80-Gly242) of human neutrophil collagenase (MMP-8)
Substrate: 10 microM DNP-Pro-Leu-Gly-Leu-Trp-Ala-D-Arg-NH2
A solution of the enzyme and inhibitor in assay buffer (25° C.) was prepared. The reaction was started by giving the substrate into the solution. The cleavage of the fluorogenic substrate was followed by fluorescence spectroscopy with an excitation and emission wavelength of 280 and 350 nm, respectively. The IC50 value was calculated as the inhibitor concentration, which is necessary to decrease the velocity of the reaction to the half in comparison to the reaction without inhibitor.

T1 sequence (P22894 100-262 limits assumed): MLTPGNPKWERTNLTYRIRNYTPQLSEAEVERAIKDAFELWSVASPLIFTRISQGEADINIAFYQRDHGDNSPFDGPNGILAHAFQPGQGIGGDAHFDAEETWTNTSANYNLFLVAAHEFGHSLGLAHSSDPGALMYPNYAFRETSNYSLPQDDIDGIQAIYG

SMILES	IC50
O=C1NC(=O)C(NCCN2CCN(c3ncccn3)CC2)(c2ccc(Oc3ccc(Br)cc3)cc2)C(=O)N1 [Example 2 - no. 10, 5-[4-(4-Bromo-phenoxy)-phenyl]-5-[2-(4-pyrimidin-2-yl-piperazin-1-yl)-ethylamino]-pyrimidine-2,4,6-trione]	9 nM

Same assay, conditions: catalytic domain of human neutrophil collagenase (MMP-8); substrate DNP-Pro-Leu-Gly-Leu-Trp-Ala-D-Arg-NH2; 25° C.; read-out: IC50 Values of MMP-Inhibitor (vs. MMP-8, catalytic domain)

SMILES	IC50
NS(=O)(=O)c1ccc(CN2CCN(C3(c4ccc(Oc5ccc(Br)cc5)cc4)C(=O)NC(=O)NC3=O)CC2)cc1 [Example 2 - no. 11, 4-(4-5-[4-(4-Bromo-phenoxy)-phenyl]-2,4,6-trioxo-hexahydro-pyrimidin-5-yl-piperazin-1-ylmethyl)-benzenesulfonamide]	11 nM
O=C1NC(=O)C(c2ccc(Oc3ccc(Cl)cc3)cc2)(N2CCN(CC3COC(=O)O3)CC2)C(=O)N1 (stereo not shown) [Example 2 - no. 2, 5-[4-(4-Chloro-phenoxy)-phenyl]-5-[4-(2-oxo-[1,3]dioxolan-4-ylmethyl)-piperazin-1-yl]-pyrimidine-2,4,6-trione]	9 nM
O=C(O)CCC(=O)N1CCN(C2(c3ccc(Oc4ccccc4)cc3)C(=O)NC(=O)NC2=O)CC1 [Example 3, 4-Oxo-4-4-[2,4,6-trioxo-5-(4-phenoxy-phenyl)-hexahydro-pyrimidin-5-yl]-piperazin-1-yl-butyric acid]	11 nM
CCOCC(O)CN1CCN(C2(c3ccc(Oc4ccc(Cl)cc4)cc3)C(=O)NC(=O)NC2=O)CC1 (stereo not shown) [Example 2 - no. 3, 5-[4-(4-Chloro-phenoxy)-phenyl]-5-[4-(3-ethoxy-2-hydroxy-propyl)-piperazin-1-yl]-pyrimidine-2,4,6-trione]	15 nM
O=C1NC(=O)C(c2ccc(Sc3ccccc3)cc2)(N2CCN(CCOCCO)CC2)C(=O)N1 [Example 2 - no. 5, 5-4-[2-(2-Hydroxy-ethoxy)-ethyl]-piperazin-1-yl-5-(4-phenylsulfanyl-phenyl)-pyrimidine-2,4,6-trione]	19 nM
O=C1NC(=O)C(c2ccc(Oc3ccc(Cl)c(Cl)c3)cc2)(N2CCN(CCOCCO)CC2)C(=O)N1 [Example 2 - no. 4, 5-[4-(3,4-Dichloro-phenoxy)-phenyl]-5-4-[2-(2-hydroxy-ethoxy)-ethyl]-piperazin-1-yl-pyrimidine-2,4,6-trione]	7 nM
O=C1NC(=O)C(c2ccc(Oc3ccc(Cl)cc3)cc2)(N2CCN(CCOCCO)CC2)C(=O)N1 [Example 2 - no. 1]	16 nM
O=C1NC(=O)C(c2ccc(Oc3ccc(Cl)cc3)cc2)(N2CCN(CC(O)CO)CC2)C(=O)N1 (stereo not shown) [Example 1, 5-[4-(4-Chloro-phenoxy)-phenyl]-5-[4-(2,3-dihydroxy-propyl)-piperazin-1-yl]-pyrimidine-2,4,6-trione]	11 nM
